For assay [1], the target named is T1, human muscarinic acetylcholine M3 receptor (M3-ACh) (Homo sapiens, UniProt P20309).
T1 construct: expressed in transfected cells; host or cells: CHO-K1 (Chinese Hamster Ovary) cell membranes
The experiment in a line: Muscarinic 3 Receptor Binding Assay ([3H]NMS competition, SPA). The settings on record: [3H]NMS 0.1 nM, CHO-K1 cell membranes, 16 hours at room temperature; read-out: M3 pIC50 (converted). The gist of the method: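 Competition SPA binding of 0.1 nM [3H]NMS (quarter Kd) to membranes from CHO-K1 cells expressing human M3, in 20 mM HEPES pH 7.4, 5 mM MgCl2, 1% DMSO. Incubated 16 h at room temperature; non-specific binding with 1 µM atropine. pIC50 from 50% reduction of specific binding.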

The target of assay [2] is T2, Adrenergic β2 (H292 cells) (Homo sapiens, UniProt P07550).
T2 construct: endogenous in cells; host or cells: H292 cells
T2 sequence (P07550 whole entry): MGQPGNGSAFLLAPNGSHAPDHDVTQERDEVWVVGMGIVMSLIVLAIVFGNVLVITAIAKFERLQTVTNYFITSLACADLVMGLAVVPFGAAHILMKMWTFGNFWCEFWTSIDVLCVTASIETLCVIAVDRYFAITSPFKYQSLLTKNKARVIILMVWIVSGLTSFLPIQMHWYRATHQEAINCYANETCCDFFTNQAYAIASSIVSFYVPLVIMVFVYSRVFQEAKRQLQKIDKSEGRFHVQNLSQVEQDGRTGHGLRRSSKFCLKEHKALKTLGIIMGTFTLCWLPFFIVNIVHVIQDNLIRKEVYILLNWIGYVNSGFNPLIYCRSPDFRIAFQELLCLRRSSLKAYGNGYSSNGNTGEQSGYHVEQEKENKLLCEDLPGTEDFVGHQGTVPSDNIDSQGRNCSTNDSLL
The experiment in a line: Assay for Adrenergic β2 Mediated cAMP Production (concentration response, AlphaScreen cAMP detection). It is filed as cell-based. The settings on record: for EC50: cAMP production, 60 minutes at room temperature, 300 μM rolipram, read-out: β2 pEC50 (converted); for β2 Intrinsic activity: fraction relative to the maximum activity determined for formoterol. The gist of the method: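 Intrinsic activity is relative to the per-experiment formoterol maximum, with pEC50 from a four-parameter logistic fit of cAMP levels quantified by AlphaScreen against standards. Cells (H292) got 300 μM rolipram for 10 min, then compound for 60 min at room temperature, 1% DMSO final.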

Structures can show the parent of a compound that is named as a salt.

T1 sequence (P20309 whole entry): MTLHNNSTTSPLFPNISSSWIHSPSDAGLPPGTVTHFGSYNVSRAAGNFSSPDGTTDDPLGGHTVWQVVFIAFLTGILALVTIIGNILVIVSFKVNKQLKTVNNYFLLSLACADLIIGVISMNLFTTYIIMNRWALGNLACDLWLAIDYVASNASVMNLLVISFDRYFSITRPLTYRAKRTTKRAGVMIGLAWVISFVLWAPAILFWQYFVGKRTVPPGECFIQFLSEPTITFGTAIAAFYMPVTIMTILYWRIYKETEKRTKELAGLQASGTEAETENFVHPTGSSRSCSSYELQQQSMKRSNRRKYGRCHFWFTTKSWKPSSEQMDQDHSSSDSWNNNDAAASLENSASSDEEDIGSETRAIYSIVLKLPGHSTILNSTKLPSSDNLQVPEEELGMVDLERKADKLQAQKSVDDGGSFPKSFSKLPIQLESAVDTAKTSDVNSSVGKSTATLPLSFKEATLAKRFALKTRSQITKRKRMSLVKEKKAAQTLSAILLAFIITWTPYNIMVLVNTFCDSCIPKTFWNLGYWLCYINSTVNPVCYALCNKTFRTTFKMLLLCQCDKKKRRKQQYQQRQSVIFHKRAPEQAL

For `CC(C)c1nc(C(=O)N2CCOC3(CCN(Cc4cc(Cl)cc(CCNC[C@H](O)c5ccc(O)c6[nH]c(=O)sc56)c4)CC3)C2)cs1` [Example 52, (R)-7-(2-(3-Chloro-5-((4-(2-isopropylthiazole-4-carbonyl)-1-oxa-4,9-diazaspiro[5.5]undecan-9-yl)methyl)phenethylamino)-1-hydroxyethyl)-4-hydroxybenzo[d]thiazol-2(3H)-one ditrifluoroacetate], the IC50 in assay [1] is 7.94 nM. In addition, in assay [2], the EC50 was 5.01 nM and the “β2 Intrinsic activity” value is 0.9.
The like results for `CC(C)c1nc(C(=O)N2CCOC3(CCN(CCOc4ccc(CCNC[C@H](O)c5ccc(O)c6[nH]c(=O)sc56)c(F)c4F)CC3)C2)cs1` [Example 269, (R)-7-(2-(2,3-Difluoro-4-(2-(4-(2-isopropylthiazole-4-carbonyl)-1-oxa-4,9-diazaspiro[5.5]undecan-9-yl)ethoxy)phenethylamino)-1-hydroxyethyl)-4-hydroxybenzo[d]thiazol-2(3H)-one ditrifluoroacetate] were, in that order, 6.31 nM, 31.6 nM and 1.1.
Consider `CC(C)c1nc(C(=O)N2CCOC3(CCN(CCCSCCCCNC[C@H](O)c4ccc(O)c5[nH]c(=O)sc45)CC3)C2)cs1` [Example 281, (R)-4-Hydroxy-7-(1-hydroxy-2-(4-(3-(4-(2-isopropylthiazole-4-carbonyl)-1-oxa-4,9-diazaspiro[5.5]undecan-9-yl)propylthio)butylamino)ethyl)benzo[d]thiazol-2(3H)-one formate], for which the IC50 in assay [1] was 1.58 nM. Moreover, in assay [2], the EC50 was 31.6 nM and the “β2 Intrinsic activity” value was found to be 0.8.
In the case of `CC(C)c1cc(C(=O)N2CCOC3(CCN(Cc4cccc(C[C@@H](C)NC[C@H](O)c5ccc(O)c6[nH]c(=O)ccc56)c4)CC3)C2)cs1` [Example 276, 8-Hydroxy-5-((R)-1-hydroxy-2-((R)-1-(3-((4-(5-isopropylthiophene-3-carbonyl)-1-oxa-4,9-diazaspiro[5.5]undecan-9-yl)methyl)phenyl)propan-2-ylamino)ethyl)quinolin-2(1H)-one ditrifluoroacetate], in assay [1], the IC50 is 2 nM. Moreover, in assay [2], the EC50 was 39.8 nM and the “β2 Intrinsic activity” value came to 1.
On the same counts, the results for `O=C(c1ccc2sccc2c1)N1CCOC2(CCN(Cc3cccc(CCNC[C@H](O)c4ccc(O)c5[nH]c(=O)sc45)c3F)CC2)C1` [Example 68, (R)-7-(2-(3-((4-(Benzo[b]thiophene-5-carbonyl)-1-oxa-4,9-diazaspiro[5.5]undecan-9-yl)methyl)-2-fluorophenethylamino)-1-hydroxyethyl)-4-hydroxybenzo[d]thiazol-2(3H)-one ditrifluoroacetate] are 25.1 nM, 6.31 nM and 0.8.
Take `CC(C)c1nc(C(=O)N2CCOC3(CCN(Cc4cccc(CCCNC[C@H](O)c5ccc(O)c6[nH]c(=O)sc56)c4F)CC3)C2)cs1` [Example 88, (R)-7-(2-(3-(2-Fluoro-3-((4-(2-isopropylthiazole-4-carbonyl)-1-oxa-4,9-diazaspiro[5.5]undecan-9-yl)methyl)phenyl)propylamino)-1-hydroxyethyl)-4-hydroxybenzo[d]thiazol-2(3H)-one ditrifluoroacetate]: the IC50 in assay [1] was 2 nM. In assay [2], the EC50 is 12.6 nM and the “β2 Intrinsic activity” value is recorded as 1.
Turning to `CC(C)c1nc(C(=O)N2CCOC3(CCN(Cc4csc(CCNC[C@H](O)c5ccc(O)c6[nH]c(=O)sc56)c4)CC3)C2)cs1` [Example 278, (R)-4-hydroxy-7-(1-hydroxy-2-(2-(4-((4-(2-isopropylthiazole-4-carbonyl)-1-oxa-4,9-diazaspiro[5.5]undecan-9-yl)methyl)thiophen-2-yl)ethylamino)ethyl)benzo[d]thiazol-2(3H)-one ditrifluoroacetate], the IC50 in assay [1] is 0.398 nM. Besides, in assay [2], the EC50 was 3.98 nM and the “β2 Intrinsic activity” value is 1.0.
For the molecule `Cc1nc(C(=O)N2CCOC3(CCN(Cc4cccc(CCOCCC(=O)N(CCNC[C@H](O)c5ccc(O)c6[nH]c(=O)sc56)C5CCCCC5)c4)CC3)C2)cs1` [Example 277, (R)—N-Cyclohexyl-N-(2-(2-hydroxy-2-(4-hydroxy-2-oxo-2,3-dihydrobenzo[d]thiazol-7-yl)ethylamino)ethyl)-3-(3-((4-(2-methylthiazole-4-carbonyl)-1-oxa-4,9-diazaspiro[5.5]undecan-9-yl)methyl)phenylethoxy)propanamide ditrifluoroacetate], the IC50 in assay [1] is 0.1 nM. For the same molecule, in assay [2], the EC50 was 31.6 nM and the “β2 Intrinsic activity” value stood at 0.9.
`Cc1nc(C(=O)N2CCOC3(CCN(CCCOc4cccc(CNC[C@H](O)c5ccc(O)c6[nH]c(=O)ccc56)c4)CC3)C2)cs1` [Example 95, (R)-8-Hydroxy-5-(1-hydroxy-2-(3-(3-(4-(2-methylthiazole-4-carbonyl)-1-oxa-4,9-diazaspiro[5.5]undecan-9-yl)propoxy)benzylamino)ethyl)quinolin-2(1H)-one ditrifluoroacetate]: the IC50 in assay [1] is 1.58 nM. In assay [2], the EC50 is over 3200 nM and the “β2 Intrinsic activity” value was “NV* (inactive up to a max concentration of 3.2 μM of test compound)”.
On to `CC(C)c1nc(C(=O)N2CCOC3(CCN(Cc4cccc(C(C)(C)CNC[C@H](O)c5ccc(O)c6[nH]c(=O)sc56)c4F)CC3)C2)cs1` [Example 90, (R)-7-(2-(2-(2-Fluoro-3-((4-(2-isopropylthiazole-4-carbonyl)-1-oxa-4,9-diazaspiro[5.5]undecan-9-yl)methyl)phenyl)-2-methylpropylamino)-1-hydroxyethyl)-4-hydroxybenzo[d]thiazol-2(3H)-one ditrifluoroacetate], for which, in assay [1], the IC50 is 79.4 nM. Further, in assay [2], the EC50 was 200 nM and the “β2 Intrinsic activity” value is 0.9.
In the case of `CC(C)c1cc(C(=O)N2CCOC3(CCN(CCCCCCCNC[C@H](O)c4ccc(O)c5[nH]c(=O)sc45)CC3)C2)cs1` [Example 284, (R)-4-Hydroxy-7-(1-hydroxy-2-(7-(4-(5-isopropylthiophene-3-carbonyl)-1-oxa-4,9-diazaspiro[5.5]undecan-9-yl)heptylamino)ethyl)benzo[d]thiazol-2(3H)-one formate], the IC50 in assay [1] is 2 nM. In assay [2], the EC50 is 12.6 nM and the “β2 Intrinsic activity” value came to 0.9.
For `CC(C)c1ncc(C(=O)N2CCOC3(CCN(CCOc4ccc(CNC[C@H](O)c5ccc(O)c6[nH]c(=O)sc56)cc4)CC3)C2)s1` [Example 114, (R)-4-Hydroxy-7-(1-hydroxy-2-(4-(2-(4-(2-isopropylthiazole-5-carbonyl)-1-oxa-4,9-diazaspiro[5.5]undecan-9-yl)ethoxy)benzylamino)ethyl)benzo[d]thiazol-2(3H)-one ditrifluoracetate], the IC50 in assay [1] is 316 nM. Besides, in assay [2], the EC50 is 63.1 nM and the “β2 Intrinsic activity” value came out at 0.9.
Regarding `Cc1ccc(C(=O)N2CCOC3(CCN(Cc4cc(CCNC[C@H](O)c5ccc(O)c6[nH]c(=O)sc56)cc(F)c4F)CC3)C2)s1` [Example 32, (R)-7-(2-(3,4-Difluoro-5-((4-(5-methylthiophene-2-carbonyl)-1-oxa-4,9-diazaspiro[5.5]undecan-9-yl)methyl)phenethylamino)-1-hydroxyethyl)-4-hydroxybenzo[d]thiazol-2(3H)-one ditrifluoroacetate], the IC50 in assay [1] is 39.8 nM. In assay [2], the EC50 was 3.16 nM and the “β2 Intrinsic activity” value came to 1.1.
As for `CC(C)c1nc(C(=O)N2CCOC3(CCN(Cc4ccc(Cl)c(CCNC[C@H](O)c5ccc(O)c6[nH]c(=O)sc56)c4)CC3)C2)cs1` [Example 75, (R)-7-(2-(2-Chloro-5-((4-(2-isopropylthiazole-4-carbonyl)-1-oxa-4,9-diazaspiro[5.5]undecan-9-yl)methyl)phenethylamino)-1-hydroxyethyl)-4-hydroxybenzo[d]thiazol-2(3H)-one ditrifluoroacetate], in assay [1], the IC50 is 2 nM. Further, in assay [2], the EC50 is 25.1 nM and the “β2 Intrinsic activity” value was determined as 0.8.
With `CC(C)c1nc(C(=O)N2CCOC3(CCN(CCCCCCCCCNC[C@H](O)c4ccc(O)c5[nH]c(=O)sc45)CC3)C2)cs1` [Example 109, (R)-4-Hydroxy-7-(1-hydroxy-2-(9-(4-(2-isopropylthiazole-4-carbonyl)-1-oxa-4,9-diazaspiro[5.5]undecan-9-yl)nonylamino)ethyl)benzo[d]thiazol-2(3H)-one formate], the IC50 in assay [1] was 0.2 nM. Also, in assay [2], the EC50 was 7.94 nM and the “β2 Intrinsic activity” value was determined as 0.9.
`Cc1nc(C(=O)N2CCOC3(CCN(Cc4ccc(CCNC[C@H](O)c5ccc(O)c6[nH]c(=O)ccc56)s4)CC3)C2)cs1` [Example 14, (R)-8-Hydroxy-5-(1-hydroxy-2-(2-(5-((4-(2-methylthiazole-4-carbonyl)-1-oxa-4,9-diazaspiro[5.5]undecan-9-yl)methyl)thiophen-2-yl)ethylamino)ethyl)quinolin-2(1H)-one ditrifluoroacetate]: in assay [1], the IC50 was 6.31 nM. In assay [2], the EC50 is 5.01 nM and the “β2 Intrinsic activity” value is 0.9.

These data come from patent publication US8148373B2, “Compounds” (AstraZeneca AB, priority 2008, dated 2012).
